Measurements reported in ChEMBL document CHEMBL1144862, “A mechanism for substrate-Induced formation of 6-hydroxyflavin mononucleotide catalyzed by C30A trimethylamine dehydrogenase” (Bioorg Med Chem Lett, 2003).

Assay: Kcat value was determined
Type: ADME

Structure (SMILES): Cc1cc2c(nc3c(=O)[nH]c(=O)nc-3n2C[C@@H](O)[C@@H](O)[C@@H](O)COP(=O)(O)O)c(O)c1C
- k cat: < 2
